# Values quoted from earlier work as cited in US9265822B2 (priority 2009, dated 2016).
# Test system: 2009 H1N1 swine flu virus
row,Structure (SMILES),"effectiveness against the 2009 ""swine"" flu"
1,NC12CC3CC(CC(C3)C1)C2 [amantadine],not proven effect
2,CC(=O)N[C@H]1[C@H]([C@H](O)[C@H](O)CO)OC(C(=O)O)=C[C@@H]1N=C(N)N [zanamivir],effective
3,CC(N)C12CC3CC(CC(C3)C1)C2 (stereo not shown) [rimantadine],not proven effect
4,CCOC(=O)C1=C[C@@H](OC(CC)CC)[C@H](NC(C)=O)[C@@H](N)C1 [oseltamivir],effective
